Laboratory results taken from ChEMBL document CHEMBL1201862, “PubChem BioAssay data set” (2004).
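Test compounds were applied to cells in 96-well plates for 48 hours at 5 doses. GI50: concentration for 50% inhibition of growth.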 Activity calls are given as the source filed them. No stated cut-off is given here; in the data, active = GI50 up to about 1.1 µM and inactive = higher.

Tests used:
Assay in all cases: DTP human tumour cell line panel, 48 h
HOP-92 = test system: HOP-92
KM12 = test system: KM12
CCRF-CEM = test system: CCRF-CEM
HOP-62 = test system: HOP-62
NCI-H460 = test system: NCI-H460
SF-268 = test system: SF-268
EKVX = test system: EKVX
MDA-MB-435 = test system: MDA-MB-435
NCI-H522 = test system: NCI-H522
SK-MEL-2 = test system: SK-MEL-2
ACHN = test system: ACHN
HT-29 = test system: HT-29
MDA-N = test system: MDA-N
OVCAR-5 = test system: OVCAR-5
OVCAR-3 = test system: OVCAR-3
M14 = test system: M14
IGROV-1 = test system: IGROV-1
M19-MEL = test system: M19-MEL
HCT-15 = test system: HCT-15
SF-539 = test system: SF-539

| SMILES | GI50 (HOP-92) | GI50 (KM12) | GI50 (CCRF-CEM) | GI50 (HOP-62) | GI50 (NCI-H460) | GI50 (SF-268) | GI50 (EKVX) | GI50 (MDA-MB-435) | GI50 (NCI-H522) | GI50 (SK-MEL-2) | GI50 (ACHN) | GI50 (HT-29) | GI50 (MDA-N) | GI50 (OVCAR-5) | GI50 (OVCAR-3) | GI50 (M14) | GI50 (IGROV-1) | GI50 (M19-MEL) | GI50 (HCT-15) [µM] | GI50 (SF-539) |
| --- | --- | --- | --- | --- | --- | --- | --- | --- | --- | --- | --- | --- | --- | --- | --- | --- | --- | --- | --- | --- |
| C=C1[C@@H](C)[C@H]2[C@H](Cc3ccccc3)NC(=O)[C@]23OC(=O)/C=C/[C@H](O)CCC[C@@H](C)C/C=C/[C@H]3[C@@H]1O | 0.436 µM (active) | 53.3 µM (inactive) | 2.37 µM (inactive) | 0.605 µM (active) | 2.62 µM (inactive) | 2.55 µM (inactive) | 10.7 µM (inactive) | 21.8 µM (inactive) | 9.23 µM (inactive) | 24.2 µM (inactive) | 4.4 µM (inactive) | 5.82 µM (inactive) | 14.2 µM (inactive) | 32.2 µM (inactive) | 7.48 µM (inactive) | > 100 µM (inactive) | 6.59 µM (inactive) | 45.8 µM (inactive) | 0.619 | 0.465 µM (active) |
| COc1cc(Nc2nc3c(N)cc(C(F)(F)F)cc3nc2-c2ccccc2)cc(OC)c1OC | 1.39 µM (inactive) | 72.8 µM (inactive) | > 100 µM (inactive) | 26.3 µM (inactive) | 37.2 µM (inactive) | 33.4 µM (inactive) | > 100 µM (inactive) | > 69.2 µM (inactive) | 28.4 µM (inactive) | 51.4 µM (inactive) | 42.9 µM (inactive) | > 92.5 µM (inactive) | > 80.7 µM (inactive) | > 100 µM (inactive) | 57.1 µM (inactive) | 66.2 µM (inactive) | 55.3 µM (inactive) | > 82.2 µM (inactive) | > 94.6 | 28.1 µM (inactive) |
| NC(=O)c1c[se]c(C2OC(CO)C(O)C2O)n1 (stereo not given) | > 100 µM (inactive) | 0.57 µM (active) | 0.875 µM (active) | 10.2 µM (inactive) | 17.5 µM (inactive) | 6.84 µM (inactive) | > 79.1 µM (inactive) | 7.29 µM (inactive) | 6.25 µM (inactive) | > 100 µM (inactive) | 5.94 µM (inactive) | 3.55 µM (inactive) | 36.4 µM (inactive) | 31 µM (inactive) | 0.74 µM (active) | 1.63 µM (inactive) | 4.98 µM (inactive) | 5.28 µM (inactive) | 0.537 | 2.43 µM (inactive) |
